Experimental data taken from patent publication US20020111274A1, “1-alkyl-3-[1-(substituted phenyl) benzotriazol-6-yl] uracils” (BASF Aktiengesellschaft, priority 2000, published 2002).

Columns and labels:
Set-up in all cases: scale not given here
[1] = test system: ORYSAT Rice, Tebonnet; assay: Preemergence herbicidal evaluation, ORYSAT; assay type: in vivo, Oryza sativa, (L.); details: preemergence
Outline: (§1)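 Seeds mixed with potting soil were planted on about one inch of soil in cups, then sprayed with the test compound in aqueous acetone at roughly 0.013 to 0.800 kg per hectare. Plants were kept under standard greenhouse care and injury was rated four to five weeks after treatment.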

[2] = test system: CHEAL Lambsquarters, Common; assay: Postemergence herbicidal evaluation, CHEAL; assay type: in vivo, Chenopodium album, L.; details: postemergence spray, rated about two-three weeks after treatment
Outline: (§2)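 For this test, compound in an 80/20 acetone/water vehicle with 1.0% seed oil was sprayed over two-week-old seedlings at about 0.006 to 0.400 kg per hectare. Injury was assessed visually two to three weeks on.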

[3] = test system: ZEAMX Corn, Field; assay: Postemergence herbicidal evaluation, ZEAMX; assay type: in vivo, Zea mays, L. (Sammel-Bezeichnung); details: postemergence spray, rated about two-three weeks after treatment
Outline: as §2

[4] = test system: ECHOG Barnyardgrass; assay: Postemergence herbicidal evaluation, ECHOG; assay type: in vivo, Echinochloa crus-galli, (L.) Beau; details: postemergence spray, rated about two-three weeks after treatment
Outline: as §2

[5] = test system: GLXMAW Soybean, Williams; assay: Postemergence herbicidal evaluation, GLXMAW; assay type: in vivo, Glycine max, (L.) Merr. cv Williams; details: postemergence spray, rated about two-three weeks after treatment
Outline: as §2

[6] = test system: ORYSAT Rice, Tebonnet; assay: Postemergence herbicidal evaluation, ORYSAT; assay type: in vivo, Oryza sativa, (L.); details: postemergence spray, rated about two-three weeks after treatment
Outline: as §2

[7] = test system: CHEAL Lambsquarters, Common; assay: Preemergence herbicidal evaluation, CHEAL; assay type: in vivo, Chenopodium album, L.; details: preemergence
Outline: as §1

[8] = test system: IPOHE Morningglory, Ivyleaf; assay: Postemergence herbicidal evaluation, IPOHE; assay type: in vivo, Ipomoea hederacea, (L.) Jacq.; details: postemergence spray, rated about two-three weeks after treatment
Outline: as §2

[9] = test system: GALAP Galium; assay: Preemergence herbicidal evaluation, GALAP; assay type: in vivo, Galium aparine; details: preemergence
Outline: as §1

[10] = test system: CASOB Sicklepod; assay: Postemergence herbicidal evaluation, CASOB; assay type: in vivo, Cassia obtusifolia, L.; details: postemergence spray, rated about two-three weeks after treatment
Outline: as §2

[11] = test system: ZEAMX Corn, Field; assay: Preemergence herbicidal evaluation, ZEAMX; assay type: in vivo, Zea mays, L. (Sammel-Bezeichnung); details: preemergence
Outline: as §1

[12] = test system: SETVI Foxtail, Green; assay: Preemergence herbicidal evaluation, SETVI; assay type: in vivo, Setaria viridis, (L.) Beau; details: preemergence
Outline: as §1

[13] = test system: ABUTH Velvetleaf; assay: Postemergence herbicidal evaluation, ABUTH; assay type: in vivo, Abutilon theophrasti, Medic.; details: postemergence spray, rated about two-three weeks after treatment
Outline: as §2

[14] = test system: SETVI Foxtail, Green; assay: Postemergence herbicidal evaluation, SETVI; assay type: in vivo, Setaria viridis, (L.) Beau; details: postemergence spray, rated about two-three weeks after treatment
Outline: as §2

[15] = test system: TRZAWR Wheat, Winter, cv Riband; assay: Postemergence herbicidal evaluation, TRZAWR; assay type: in vivo, Triticum aestivum; details: postemergence spray, rated about two-three weeks after treatment
Outline: as §2

[16] = test system: ABUTH Velvetleaf; assay: Preemergence herbicidal evaluation, ABUTH; assay type: in vivo, Abutilon theophrasti, Medic.; details: preemergence
Outline: as §1

[17] = test system: GALAP Galium; assay: Postemergence herbicidal evaluation, GALAP; assay type: in vivo, Galium aparine; details: postemergence spray, rated about two-three weeks after treatment
Outline: as §2

[18] = test system: GLXMAW Soybean, Williams; assay: Preemergence herbicidal evaluation, GLXMAW; assay type: in vivo, Glycine max, (L.) Merr. cv Williams; details: preemergence
Outline: as §1

[19] = test system: ECHOG Barnyardgrass; assay: Preemergence herbicidal evaluation, ECHOG; assay type: in vivo, Echinochloa crus-galli, (L.) Beau; details: preemergence
Outline: as §1

[20] = test system: CASOB Sicklepod; assay: Preemergence herbicidal evaluation, CASOB; assay type: in vivo, Cassia obtusifolia, L.; details: preemergence
Outline: as §1

[21] = test system: AMBEL Ragweed, Common; assay: Preemergence herbicidal evaluation, AMBEL; assay type: in vivo, Ambrosia artemisifolia, L.; details: preemergence
Outline: as §1

[22] = test system: IPOHE Morningglory, Ivyleaf; assay: Preemergence herbicidal evaluation, IPOHE; assay type: in vivo, Ipomoea hederacea, (L.) Jacq.; details: preemergence
Outline: as §1

[23] = test system: TRZAWR Wheat, Winter, cv Riband; assay: Preemergence herbicidal evaluation, TRZAWR; assay type: in vivo, Triticum aestivum; details: preemergence
Outline: as §1

[24] = test system: AMBEL Ragweed, Common; assay: Postemergence herbicidal evaluation, AMBEL; assay type: in vivo, Ambrosia artemisifolia, L.; details: postemergence spray, rated about two-three weeks after treatment
Outline: as §2

## COC(=O)COc1ccc(-n2nnc3cc(F)c(-n4c(=O)cc(C(F)(F)F)n(C)c4=O)cc32)c(C)c1 [Example 39]
[1]; rate 0.016 kg/ha
  ORYSAT herbicidal rating: 0.0
[1]; rate 0.032 kg/ha
  ORYSAT herbicidal rating: 0.0
[1]; rate 0.062 kg/ha
  ORYSAT herbicidal rating: 0.0
[1]; rate 0.125 kg/ha
  ORYSAT herbicidal rating: 3.0
[2]; 0.008 kg/ha
  Postemergence herbicidal rating CHEAL: 0.0
[2]; 0.016 kg/ha
  Postemergence herbicidal rating CHEAL: 2.0
[2]; 0.032 kg/ha
  Postemergence herbicidal rating CHEAL: 2.0
[2]; 0.062 kg/ha
  Postemergence herbicidal rating CHEAL: 7.0
[3]; 0.008 kg/ha
  Postemergence herbicidal rating ZEAMX: 7.0
[3]; 0.016 kg/ha
  Postemergence herbicidal rating ZEAMX: 7.5
[3]; 0.032 kg/ha
  Postemergence herbicidal rating ZEAMX: 7.5
[3]; 0.062 kg/ha
  Postemergence herbicidal rating ZEAMX: 7.5
[4]; 0.008 kg/ha
  Postemergence herbicidal rating ECHCG: 0.0
[4]; 0.016 kg/ha
  Postemergence herbicidal rating ECHCG: 0.0
[4]; 0.032 kg/ha
  Postemergence herbicidal rating ECHCG: 0.0
[4]; 0.062 kg/ha
  Postemergence herbicidal rating ECHCG: 3.0
[5]; 0.008 kg/ha
  Postemergence herbicidal rating GLXMAW: 3.5
[5]; 0.016 kg/ha
  Postemergence herbicidal rating GLXMAW: 3.5
[5]; 0.032 kg/ha
  Postemergence herbicidal rating GLXMAW: 4.0
[5]; 0.062 kg/ha
  Postemergence herbicidal rating GLXMAW: 5.0
[6]; 0.008 kg/ha
  Postemergence herbicidal rating ORYSAT: 0.0
[6]; 0.016 kg/ha
  Postemergence herbicidal rating ORYSAT: 0.5
[6]; 0.032 kg/ha
  Postemergence herbicidal rating ORYSAT: 1.0
[6]; 0.062 kg/ha
  Postemergence herbicidal rating ORYSAT: 4.0
[7]; rate 0.016 kg/ha
  CHEAL herbicidal rating: 3.0
[7]; rate 0.032 kg/ha
  CHEAL herbicidal rating: 3.0
[7]; rate 0.062 kg/ha
  CHEAL herbicidal rating: 9.0
[7]; rate 0.125 kg/ha
  CHEAL herbicidal rating: 9.0
[8]; 0.008 kg/ha
  Postemergence herbicidal rating IPOHE: 9.0
[8]; 0.016 kg/ha
  Postemergence herbicidal rating IPOHE: 8.0
[8]; 0.032 kg/ha
  Postemergence herbicidal rating IPOHE: 9.0
[8]; 0.062 kg/ha
  Postemergence herbicidal rating IPOHE: 9.0
[9]; rate 0.016 kg/ha
  GALAP herbicidal rating: 0.0
[9]; rate 0.032 kg/ha
  GALAP herbicidal rating: 0.0
[9]; rate 0.062 kg/ha
  GALAP herbicidal rating: 0.0
[9]; rate 0.125 kg/ha
  GALAP herbicidal rating: 7.0
[10]; 0.008 kg/ha
  Postemergence herbicidal rating CASOB: 0.0
[10]; 0.016 kg/ha
  Postemergence herbicidal rating CASOB: 0.0
[10]; 0.032 kg/ha
  Postemergence herbicidal rating CASOB: 0.0
[10]; 0.062 kg/ha
  Postemergence herbicidal rating CASOB: 2.0
[11]; rate 0.016 kg/ha
  ZEAMX herbicidal rating: 0.0
[11]; rate 0.032 kg/ha
  ZEAMX herbicidal rating: 0.0
[11]; rate 0.062 kg/ha
  ZEAMX herbicidal rating: 0.0
[11]; rate 0.125 kg/ha
  ZEAMX herbicidal rating: 0.0
[12]; rate 0.016 kg/ha
  SETVI herbicidal rating: 0.0
[12]; rate 0.032 kg/ha
  SETVI herbicidal rating: 0.0
[12]; rate 0.062 kg/ha
  SETVI herbicidal rating: 0.0
[12]; rate 0.125 kg/ha
  SETVI herbicidal rating: 4.0
[13]; 0.008 kg/ha
  Postemergence herbicidal rating ABUTH: 9.0
[13]; 0.016 kg/ha
  Postemergence herbicidal rating ABUTH: 9.0
[13]; 0.032 kg/ha
  Postemergence herbicidal rating ABUTH: 9.0
[13]; 0.062 kg/ha
  Postemergence herbicidal rating ABUTH: 9.0
[14]; 0.008 kg/ha
  Postemergence herbicidal rating SETVI: 0.0
[14]; 0.016 kg/ha
  Postemergence herbicidal rating SETVI: 0.0
[14]; 0.032 kg/ha
  Postemergence herbicidal rating SETVI: 0.0
[14]; 0.062 kg/ha
  Postemergence herbicidal rating SETVI: 2.0
[15]; 0.008 kg/ha
  Postemergence herbicidal rating TRZAWR: 2.5
[15]; 0.016 kg/ha
  Postemergence herbicidal rating TRZAWR: 3.0
[15]; 0.032 kg/ha
  Postemergence herbicidal rating TRZAWR: 3.5
[15]; 0.062 kg/ha
  Postemergence herbicidal rating TRZAWR: 5.5
[16]; rate 0.016 kg/ha
  ABUTH herbicidal rating: 0.0
[16]; rate 0.032 kg/ha
  ABUTH herbicidal rating: 5.0
[16]; rate 0.062 kg/ha
  ABUTH herbicidal rating: 9.0
[16]; rate 0.125 kg/ha
  ABUTH herbicidal rating: 9.0
[17]; 0.008 kg/ha
  Postemergence herbicidal rating GALAP: 0.0
[17]; 0.016 kg/ha
  Postemergence herbicidal rating GALAP: 0.0
[17]; 0.032 kg/ha
  Postemergence herbicidal rating GALAP: 3.0
[17]; 0.062 kg/ha
  Postemergence herbicidal rating GALAP: 3.0
[18]; rate 0.016 kg/ha
  GLXMAW herbicidal rating: 0.0
[18]; rate 0.032 kg/ha
  GLXMAW herbicidal rating: 0.0
[18]; rate 0.062 kg/ha
  GLXMAW herbicidal rating: 0.0
[18]; rate 0.125 kg/ha
  GLXMAW herbicidal rating: 0.0
[19]; rate 0.016 kg/ha
  ECHCG herbicidal rating: 0.0
[19]; rate 0.032 kg/ha
  ECHCG herbicidal rating: 0.0
[19]; rate 0.062 kg/ha
  ECHCG herbicidal rating: 0.0
[19]; rate 0.125 kg/ha
  ECHCG herbicidal rating: 0.0
[20]; rate 0.016 kg/ha
  CASOB herbicidal rating: 0.0
[20]; rate 0.032 kg/ha
  CASOB herbicidal rating: 0.0
[20]; rate 0.062 kg/ha
  CASOB herbicidal rating: 0.0
[20]; rate 0.125 kg/ha
  CASOB herbicidal rating: 0.0
[21]; rate 0.016 kg/ha
  AMBEL herbicidal rating: 0.0
[21]; rate 0.032 kg/ha
  AMBEL herbicidal rating: 0.0
[21]; rate 0.062 kg/ha
  AMBEL herbicidal rating: 0.0
[21]; rate 0.125 kg/ha
  AMBEL herbicidal rating: 0.0
[22]; rate 0.016 kg/ha
  IPOHE herbicidal rating: 0.0
[22]; rate 0.032 kg/ha
  IPOHE herbicidal rating: 0.0
[22]; rate 0.062 kg/ha
  IPOHE herbicidal rating: 0.0
[22]; rate 0.125 kg/ha
  IPOHE herbicidal rating: 3.0
[23]; rate 0.016 kg/ha
  TRZAWR herbicidal rating: 0.0
[23]; rate 0.032 kg/ha
  TRZAWR herbicidal rating: 0.0
[23]; rate 0.062 kg/ha
  TRZAWR herbicidal rating: 0.0
[23]; rate 0.125 kg/ha
  TRZAWR herbicidal rating: 0.0
[24]; 0.008 kg/ha
  Postemergence herbicidal rating AMBEL: 0.0
[24]; 0.016 kg/ha
  Postemergence herbicidal rating AMBEL: 0.0
[24]; 0.032 kg/ha
  Postemergence herbicidal rating AMBEL: 6.0
[24]; 0.062 kg/ha
  Postemergence herbicidal rating AMBEL: 7.0
